According to patent US20260055103A1, “2,3,4,9-TETRAHYDRO-1H-PYRIDO[3,4-B]INDOLE DERIVATIVES AS ESTROGEN RECEPTOR MODULATORS FOR THE TREATMENT OF CANCER” (Olema Pharmaceuticals, Inc., priority 2022, published 2026):

Each compound was assayed against T1, estrogen receptor (Homo sapiens, UniProt P03372) (assay: Alkaline phosphatase (AP) assay in ECC-1 cells, agonist mode (no E2) and antagonist mode (500 pM E2)). Details: 3 days, AP activity normalized to 500 pM E2 alone, agonist mode without E2, antagonist mode with 500 pM E2.
T1 construct: endogenous in cells; host or cells: ECC-1 cells
T1 sequence (P03372 1-595): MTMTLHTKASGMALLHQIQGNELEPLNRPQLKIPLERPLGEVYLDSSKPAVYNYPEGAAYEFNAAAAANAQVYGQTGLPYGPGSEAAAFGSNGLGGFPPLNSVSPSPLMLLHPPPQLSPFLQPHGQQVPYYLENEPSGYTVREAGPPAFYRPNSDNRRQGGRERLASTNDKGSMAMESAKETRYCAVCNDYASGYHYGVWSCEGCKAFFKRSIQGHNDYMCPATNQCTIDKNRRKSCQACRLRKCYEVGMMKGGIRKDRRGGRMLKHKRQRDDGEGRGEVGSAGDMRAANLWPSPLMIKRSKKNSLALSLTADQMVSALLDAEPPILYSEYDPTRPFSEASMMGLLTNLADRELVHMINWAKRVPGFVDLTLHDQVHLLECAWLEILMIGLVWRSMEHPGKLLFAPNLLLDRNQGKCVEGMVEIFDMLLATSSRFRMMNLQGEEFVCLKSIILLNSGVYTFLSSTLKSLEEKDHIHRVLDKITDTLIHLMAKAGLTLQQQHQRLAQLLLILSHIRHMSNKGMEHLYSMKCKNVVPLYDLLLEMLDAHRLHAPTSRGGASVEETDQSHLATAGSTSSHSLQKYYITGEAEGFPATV
Assay type: cell-based
Summary of the method: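 ECC-1 cells in hormone-depleted medium treated 3 days with compound alone (agonist mode) or with 500 pM E2 (antagonist mode). Alkaline phosphatase read by p-nitrophenyl phosphate hydrolysis, 40 min at 42° C, A405. Activity normalized to 500 pM E2 alone.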

| Structure (SMILES) | Activity (estrogen receptor modulation, agonism and antagonism) |
| --- | --- |
| C[C@@H]1Cc2c([nH]c3ccccc23)[C@@H](c2cnc(CC3CN(CCCF)C3)s2)N1CC(F)(F)F [Example I-38, 2-[[1-(3-fluoropropyl)azetidin-3-yl]methyl]-5-[(1S,3R)-3-methyl-2-(2,2,2-trifluoroethyl)-1,3,4,9-tetrahydropyrido[3,4-b]indol-1-yl]thiazole] | ++ (estrogen receptor antagonism having (i) between 10% and 80% increase in the E2-normalized signal in the AP assay (agonist mode) and (ii) between 10% and 80% reduction in the E2-normalized signal in the AP assay (antagonist mode)) |
| C[C@@H]1Cc2c([nH]c3ccccc23)[C@@H](c2ncc(CC3CN(CCC(F)F)C3)s2)N1CC(F)(F)F [Example I-39, 5-[[1-(3,3-difluoropropyl)azetidin-3-yl]methyl]-2-[(1S,3R)-3-methyl-2-(2,2,2-trifluoroethyl)-1,3,4,9-tetrahydropyrido[3,4-b]indol-1-yl]thiazole] | ++ (estrogen receptor antagonism having (i) between 10% and 80% increase in the E2-normalized signal in the AP assay (agonist mode) and (ii) between 10% and 80% reduction in the E2-normalized signal in the AP assay (antagonist mode)) |
| C[C@@H]1Cc2c([nH]c3ccccc23)[C@@H](c2cnc(CC3CN(CCCF)C3)s2)N1CC(F)(F)CO [Example I-40, 2,2-difluoro-3-[(1S,3R)-1-[2-[[1-(3-fluoropropyl)azetidin-3-yl]methyl]thiazol-5-yl]-3-methyl-1,3,4,9-tetrahydropyrido[3,4-b]indol-2-yl]propan-1-ol] | +++ (estrogen receptor antagonism (i) with pIC50 greater than 7.5 and at least a 10% reduction in the E2-normalized signal in the AP assay (antagonist mode); and no more than 10% increase in E2-normalized signal in the AP assay (agonist mode)) |
| C[C@@H]1Cc2c([nH]c3ccccc23)[C@@H](c2cnc(C[C@@H]3CCN(CCCF)C3)s2)N1CC(F)F [Example I-41, 5-[(1S,3R)-2-(2,2-difluoroethyl)-3-methyl-1,3,4,9-tetrahydropyrido[3,4-b]indol-1-yl]-2-[[(3S)-1-(3-fluoropropyl)pyrrolidin-3-yl]methyl]thiazole] | ++ (estrogen receptor antagonism having (i) between 10% and 80% increase in the E2-normalized signal in the AP assay (agonist mode) and (ii) between 10% and 80% reduction in the E2-normalized signal in the AP assay (antagonist mode)) |
| C[C@@H]1Cc2c([nH]c3ccccc23)[C@@H](c2cnc(C[C@@H]3CCN(CCCF)C3)s2)N1CC(F)(F)CO [Example I-42] | ++ (estrogen receptor antagonism having (i) between 10% and 80% increase in the E2-normalized signal in the AP assay (agonist mode) and (ii) between 10% and 80% reduction in the E2-normalized signal in the AP assay (antagonist mode)) |
| C[C@@H]1Cc2c([nH]c3ccccc23)[C@@H](c2cnc(C[C@@H]3CCN(CCCF)C3)s2)N1CC(C)(C)F [Example I-43] | ++ (estrogen receptor antagonism having (i) between 10% and 80% increase in the E2-normalized signal in the AP assay (agonist mode) and (ii) between 10% and 80% reduction in the E2-normalized signal in the AP assay (antagonist mode)) |
| C[C@@H]1Cc2c([nH]c3ccccc23)[C@@H](c2ncc(CC3CN(CCCF)C3)s2)N1CC(F)(F)CO [Example I-44, 2,2-difluoro-3-[(1S,3R)-1-[5-[[1-(3-fluoropropyl)azetidin-3-yl]methyl]thiazol-2-yl]-3-methyl-1,3,4,9-tetrahydropyrido[3,4-b]indol-2-yl]propan-1-ol] | ++ (estrogen receptor antagonism having (i) between 10% and 80% increase in the E2-normalized signal in the AP assay (agonist mode) and (ii) between 10% and 80% reduction in the E2-normalized signal in the AP assay (antagonist mode)) |
| CCCN1CC[C@@H](Cc2ncc([C@@H]3c4[nH]c5ccccc5c4C[C@@H](C)N3CC(F)F)s2)C1 [Example I-45, 5-[(1S,3R)-2-(2,2-difluoroethyl)-3-methyl-1,3,4,9-tetrahydropyrido[3,4-b]indol-1-yl]-2-[[(3S)-1-propylpyrrolidin-3-yl]methyl]thiazole] | + (estrogen receptor agonism having (i) at least 80% increase in the E2-normalized signal in the AP assay (agonist mode) and (ii) no more than 80% reduction in the E2-normalized signal in the AP assay (antagonist mode)) |
| CCCN1CC[C@@H](Cc2ncc([C@@H]3c4[nH]c5ccccc5c4C[C@@H](C)N3CC(F)(F)CO)s2)C1 [Example I-46, 2,2-difluoro-3-((1S,3R)-3-methyl-1-(2-(((S)-1-propylpyrrolidin-3-yl)methyl)thiazol-5-yl)-1,3,4,9-tetrahydro-2H-pyrido[3,4-b]indol-2-yl)propan-1-ol] | ++ (estrogen receptor antagonism having (i) between 10% and 80% increase in the E2-normalized signal in the AP assay (agonist mode) and (ii) between 10% and 80% reduction in the E2-normalized signal in the AP assay (antagonist mode)) |
| CCCN1CC[C@@H](Cc2ncc([C@@H]3c4[nH]c5ccccc5c4C[C@@H](C)N3CC(C)(C)F)s2)C1 [Example I-47] | + (estrogen receptor agonism having (i) at least 80% increase in the E2-normalized signal in the AP assay (agonist mode) and (ii) no more than 80% reduction in the E2-normalized signal in the AP assay (antagonist mode)) |
| C[C@@H]1Cc2c([nH]c3ccccc23)[C@@H](c2cnc(C[C@@H]3CCN(CCCF)C3)s2)N1CC(F)(F)F [Example I-48, 2-[[(3S)-1-(3-fluoropropyl)pyrrolidin-3-yl]methyl]-5-[(1S,3R)-3-methyl-2-(2,2,2-trifluoroethyl)-1,3,4,9-tetrahydropyrido[3,4-b]indol-1-yl]thiazole] | ++ (estrogen receptor antagonism having (i) between 10% and 80% increase in the E2-normalized signal in the AP assay (agonist mode) and (ii) between 10% and 80% reduction in the E2-normalized signal in the AP assay (antagonist mode)) |
| CCCN1CC[C@@H](Cc2ncc([C@@H]3c4[nH]c5ccccc5c4C[C@@H](C)N3CC(F)(F)F)s2)C1 [Example I-49, 5-[(1S,3R)-3-methyl-2-(2,2,2-trifluoroethyl)-1,3,4,9-tetrahydropyrido[3,4-b]indol-1-yl]-2-[[(3S)-1-propylpyrrolidin-3-yl]methyl]thiazole] | + (estrogen receptor agonism having (i) at least 80% increase in the E2-normalized signal in the AP assay (agonist mode) and (ii) no more than 80% reduction in the E2-normalized signal in the AP assay (antagonist mode)) |
| CCCN1CC(Cc2cnc([C@@H]3c4[nH]c5ccccc5c4C[C@@H](C)N3CC(F)(F)CO)s2)C1 [Example I-50, 2,2-difluoro-3-[(1S,3R)-3-methyl-1-[5-[(1-propylazetidin-3-yl)methyl]thiazol-2-yl]-1,3,4,9-tetrahydropyrido[3,4-b]indol-2-yl]propan-1-ol] | ++ (estrogen receptor antagonism having (i) between 10% and 80% increase in the E2-normalized signal in the AP assay (agonist mode) and (ii) between 10% and 80% reduction in the E2-normalized signal in the AP assay (antagonist mode)) |
